Experimental data published in article PMC6409975, “Functional Characterization of OXYL, A SghC1qDC LacNAc-specific Lectin from The Crinoid Feather Star Anneissia Japonica” (Marine Drugs, 2019).
In brackets after ≈: the same amount, converted by molar mass.

What was measured:
OXYL [1] = molecular target: T1, OXYL (Anneissia japonica, UniProt A0A482DHP7); assay: glycan array, fluorescence-labelled lectin; format: binding; conditions: immobilised glycan (1 mM spotted); HiLyte Fluor 555-labelled OXYL 0-20 μg/mL; 4 °C overnight; weaker than LNnT
T1 construct: signal peptide 1-18 removed; mainly tetramer; HiLyte Fluor 555-labelled for glycan array
T1 sequence (A0A482DHP7 entry or part of it): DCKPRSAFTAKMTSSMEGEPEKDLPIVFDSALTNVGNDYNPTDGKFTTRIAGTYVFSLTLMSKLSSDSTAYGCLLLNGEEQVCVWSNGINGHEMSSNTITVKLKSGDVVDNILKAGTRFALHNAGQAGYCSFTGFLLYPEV

OXYL [2] = molecular target: T1, OXYL; assay: hemagglutination inhibition, rabbit erythrocytes; format: binding; conditions: lectin titer 16; TBS with 0.2% Triton X-100; room temperature, 1 h; glutaraldehyde-fixed trypsinized erythrocytes
Text: hemagglutination inhibition, rabbit erythrocytes on OXYL

| SMILES | glycan array, fluorescence-labelled lectin (OXYL [1]) | Minimum inhibitory conc. (OXYL [2]) [mM] |
| --- | --- | --- |
| CC(=O)N[C@H]1[C@H]([C@H](O)[C@H](O)CO)O[C@@](O[C@H]2[C@@H](O)[C@@H](CO)O[C@@H](O[C@H]3[C@H](O)[C@@H](NC(C)=O)C(O)O[C@@H]3CO)[C@@H]2O)(C(=O)O)C[C@@H]1O (some centres unmarked) [compound 2, S3LN] | OXYL could bind to 3-sialylated LacNAc more strongly than to 6-sialylated LacNAc | – |
| CC(=O)N[C@H]1C(O)O[C@H](CO)[C@@H](O[C@@H]2O[C@H](CO)[C@H](O)[C@H](O)[C@H]2O)[C@@H]1O (some centres unmarked) [N-acetyllactosamine] | – | 3.13 (≈ 1200 µg/mL) |
